pKi: −log10 of the molar value. Counter-ions that a name gives are not always drawn.
Assays:
D2 dopamine receptors = D2 dopamine receptors (Rattus norvegicus, UniProt P61169); experiment: inhibition of tritiated (S)-sulpiride binding to D2 dopamine receptors in vitro; parameters: species or system rat (male Charles River CD, striatal tissue); details: rat striatum, tritiated (S)-sulpiride 1 nM, 4° C., 40 min
5-HT1A receptors = target: T1, 5-HT1A receptors (Rattus norvegicus, UniProt P19327); experiment: inhibition of [3H]8-OH-DPAT binding to 5-HT1A receptors in vitro; parameters: species or system rat (male Sprague-Dawley, hippocampal tissue); details: rat hippocampus, [3H]8-OH-DPAT 2 nM, 25° C., 30 min
T1 sequence (P19327 1-422): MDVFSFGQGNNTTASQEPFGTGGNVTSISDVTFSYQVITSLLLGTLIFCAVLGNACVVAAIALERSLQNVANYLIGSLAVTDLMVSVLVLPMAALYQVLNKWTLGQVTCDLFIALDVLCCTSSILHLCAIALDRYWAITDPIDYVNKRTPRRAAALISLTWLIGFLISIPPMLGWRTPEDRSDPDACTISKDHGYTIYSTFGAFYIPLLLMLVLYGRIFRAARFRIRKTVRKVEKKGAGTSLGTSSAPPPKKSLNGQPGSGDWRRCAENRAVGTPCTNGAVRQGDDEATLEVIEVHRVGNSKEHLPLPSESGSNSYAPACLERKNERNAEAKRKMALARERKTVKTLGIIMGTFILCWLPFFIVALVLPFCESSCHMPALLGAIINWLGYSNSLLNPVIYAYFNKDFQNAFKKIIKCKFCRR
Protocol: Hippocampal tissue from the brains of male Sprague-Dawley rats (Charles River; weight range 150-250 g) was homogenised in ice-cold 50 mM Tris-HCl buffer (pH 7.7 when measured at 25° C., 1:40 w/v) and centrifuged at 30,000 g at 4° C. for 10 minutes. The pellet was rehomogenised in the same buffer, incubated at 37° C. for 10 minutes and centrifuged at 30,000 g at 4° C. for 10 minutes. The final pellet was resuspended in 50 mM Tris-HCl buffer (pH 7.7) containing 4 mM CaCl2. 0.1% L-ascorbic acid and 10 μM pargyline hydrochloride (equivalent to 6.25 mg wet weight of tissue/ml) and used immediately in the binding assay. Aliquots (400 μl; equivalent to 2.5 mg wet weight of tissue/tube) of this suspension were added to tubes containing the ligand (50 μl; 2 nM) and distilled water (50 μl; total binding) or 5-HT (50 μl; 10 μM; non-specific binding) or test compound (50 μl; at a single concentration of 10^-6 M or at 10 concentrations ranging from 10^-11 -10^-3 M). The ligand was [^3 H]8-hydroxy-2-(dipropylamino)tetralin ([^3 H]8-OH-DPAT) and the mixture was incubated at 25° C. for 30 minutes before the incubation was terminated by rapid filtration.

α1-adrenoceptors = experiment: inhibition of 7-methoxy-[3H]prazosin binding to α1-adrenoceptors in vitro; parameters: species or system rat (male Charles River CD, whole cortical tissue); details: rat whole cortex, 30 min; for pKi: 7-methoxy-[3H]prazosin 0.1 nM, 30° C.
Protocol: Whole cortical tissue from the brains of male Charles River CD rats weighing between 150-250 g were homogenised in ice-cold 50 mM Tris-HCl, pH 7.6 (at 25° C.; 1:40 w/v) and centrifuged at 1000 g at 4° C. for 10 minutes. The supernatant was centrifuged at 30,000 g at 4° C. for 10 minutes. The pellet was rehomogenised in 50 mM Tris-HCl, pH 7.6 (1:40 w/v) and centrifuged at 30,000 g at 4° C. for 10 minutes. The final pellet was resuspended in 50 mM Tris-HCl, pH 7.6 (equivalent to 12.5 mg wet weight of tissue/ml) and used immediately in the binding assay. Aliquots (400 μl; equivalent to 5 mg wet weight of tissue/tube) of this suspension were added to tubes containing the ligand (50 μl; 0.1 nM) and distilled water (50 μl; total binding) or phentolamine (50 μl; 5 μM; non-specific binding) or test compound (50 μl; at a single concentration of 10^-6 M or at 10 concentrations ranging from 10^-11 -10^-3 M). The ligand was 7-methoxy-[^3 H]prazosin and the mixture was incubated at 30° C. for 30 minutes before the incubation was terminated by rapid filtration. The filters were washed with ice-cold Tris-HCl buffer and dried. The filters were punched out into vials, scintillation fluid added and radioactivity determined by liquid scintillation counting. The percentage displacement of specific binding of the tritiated ligand was calculated for the single concentration (10^-6 M) of test compound. […] The concentration which gave 50% inhibition of specific binding (IC50) was obtained from the curve. The inhibition coefficient Ki was then calculated using the formula [formula] in which [ligand] is the concentration of the tritiated ligand used and KD is the equilibrium dissociation constant for the ligand.

α2A-adrenoceptors = target: T2, α2A-adrenoceptors (Homo sapiens, UniProt P08913); experiment: inhibition of tritiated RX 821002 binding to α2A-adrenoceptors in vitro; parameters: species or system human (cerebral cortex post-mortem); details: human cerebral cortex; for pKi: [3H]RX 821002 0.2 nM, 0° C., 75 min; for inhibition at 1 µM: 10^-6 M, [3H]RX 821002, read-out: % displacement at 10^-6 M, α2A
T2 construct: Human cerebral cortex obtained at post-mortem; from tissue; host or cells: human cerebral cortex, post-mortem
T2 sequence (P08913 1-465): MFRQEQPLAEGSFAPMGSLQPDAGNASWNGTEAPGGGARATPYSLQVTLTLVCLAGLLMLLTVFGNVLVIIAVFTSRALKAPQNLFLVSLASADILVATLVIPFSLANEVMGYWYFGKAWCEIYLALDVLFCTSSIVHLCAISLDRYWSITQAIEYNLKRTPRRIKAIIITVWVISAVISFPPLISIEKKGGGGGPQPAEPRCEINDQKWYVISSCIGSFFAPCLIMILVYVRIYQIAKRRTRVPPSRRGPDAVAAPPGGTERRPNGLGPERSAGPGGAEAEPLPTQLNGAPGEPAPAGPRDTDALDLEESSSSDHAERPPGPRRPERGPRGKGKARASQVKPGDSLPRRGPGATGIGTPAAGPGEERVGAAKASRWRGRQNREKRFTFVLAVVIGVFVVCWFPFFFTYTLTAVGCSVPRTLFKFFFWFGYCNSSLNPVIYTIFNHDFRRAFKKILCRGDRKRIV
Protocol: Human cerebral cortex obtained at post-mortem was homogenised in ice-cold 0.25M sucrose (1:30 w/v) and centrifuged at 1,000 g at 4° C. for 12 minutes. The supernatant was stored on ice and the pellet was rehomogenised in 0.25M sucrose (1:15 w/v) and centrifuged at 850 g at 4° C. for 12 minutes. Combined supernatants were diluted with 5 mM Tris-HCl (pH 7.5) containing 5 mM ethylenediamine tetraacetic acid (EDTA), readjusted to pH 7.5 (at 25° C.) with 1M sodium hydroxide to 1:80 w/v, and centrifuged at 11,000 g at 4° C. for 10 minutes. The resulting pellet was resuspended in 50 mM Tris-HCl (pH 7.5) containing 5.68 mM L-ascorbic acid and 0.5 mM EDTA, readjusted to pH 7.5 (at 25° C.) with 1M sodium hydroxide to 1:80 w/v, and centrifuged at 11,000 g for 10 minutes. The pellet was stored at -80° C. On the day of the assay the pellet was thawed, resuspended in 50 mM Tris-HCl (pH 7.5) containing 5.68 mM L-ascorbic acid and 5 mM EDTA to 1:80 w/v and centrifuged at 11,000 g for 10 minutes. The final pellet was resuspended in 50 mM Tris-HCl (pH 7.5) containing 5.68 mM L-ascorbic acid and 5 mM EDTA (equivalent to 25 mg wet weight of tissue/ml).
Aliquots (400 μl; equivalent to 10 mg wet weight of tissue/tube) of this suspension were added to tubes containing the ligand (50 μl; 0.2 nM) and distilled water (50 μl; total binding) or phentolamine (50 μl; 50 μM; non-specific binding) or test compound (50 μl; at a single concentration of 10^-6 M or at 10 concentrations ranging from 10^-11 -10^-3 M). The ligand was tritiated RX 821002 (2-(2-methoxy-1,4-[6,7(n)-^3 H]benzodioxan-2-yl)-2-imidazoline) and the mixture was incubated at 0° C. for 75 minutes before the incubation was terminated by rapid filtration.
The filters were washed with ice-cold Tris-HCl buffer and dried. The filters were punched out into vials, scintillation fluid added and radioactivity determined by liquid scintillation counting. The percentage displacement of specific binding of the tritiated ligand was calculated for the single concentration (10^-6 M) of test compound. Displacement curves were then produced for those compounds which displaced ≥50% of specific binding of the tritiated ligand at 10^-6 M using a range of concentrations of the compound. The concentration which gave 50% inhibition of specific binding (IC50) was obtained from the curve. The inhibition coefficient Ki was then calculated using the formula [formula] in which [ligand] is the concentration of the tritiated ligand used and KD is the equilibrium dissociation constant for the ligand.

α2D-adrenoceptors = target: T3, α2D-adrenoceptors (Rattus norvegicus, UniProt P22909); experiment: inhibition of tritiated idazoxan binding to α2D-adrenoceptors in vitro; parameters: species or system rat (male Charles River CD, frontal cortical tissue); details: rat frontal cortex; for pKi: [3H]idazoxan 1 nM, 0° C., 75 min; for inhibition at 1 µM: 10^-6 M, [3H]idazoxan, read-out: % displacement at 10^-6 M, α2D
T3 sequence (P22909 1-465): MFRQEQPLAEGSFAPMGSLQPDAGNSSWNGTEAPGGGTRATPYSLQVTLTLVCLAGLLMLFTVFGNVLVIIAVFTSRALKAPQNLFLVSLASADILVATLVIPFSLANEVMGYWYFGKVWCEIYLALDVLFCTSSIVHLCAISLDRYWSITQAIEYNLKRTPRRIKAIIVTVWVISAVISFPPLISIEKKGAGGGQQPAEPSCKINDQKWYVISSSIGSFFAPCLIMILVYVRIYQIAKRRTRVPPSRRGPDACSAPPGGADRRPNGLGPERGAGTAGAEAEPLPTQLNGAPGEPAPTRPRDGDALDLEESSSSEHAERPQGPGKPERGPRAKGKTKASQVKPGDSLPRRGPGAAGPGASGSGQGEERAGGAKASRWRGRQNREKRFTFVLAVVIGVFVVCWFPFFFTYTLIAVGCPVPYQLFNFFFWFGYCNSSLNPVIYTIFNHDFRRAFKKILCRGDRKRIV

Chain of D2 dopamine receptors (P61169 whole entry): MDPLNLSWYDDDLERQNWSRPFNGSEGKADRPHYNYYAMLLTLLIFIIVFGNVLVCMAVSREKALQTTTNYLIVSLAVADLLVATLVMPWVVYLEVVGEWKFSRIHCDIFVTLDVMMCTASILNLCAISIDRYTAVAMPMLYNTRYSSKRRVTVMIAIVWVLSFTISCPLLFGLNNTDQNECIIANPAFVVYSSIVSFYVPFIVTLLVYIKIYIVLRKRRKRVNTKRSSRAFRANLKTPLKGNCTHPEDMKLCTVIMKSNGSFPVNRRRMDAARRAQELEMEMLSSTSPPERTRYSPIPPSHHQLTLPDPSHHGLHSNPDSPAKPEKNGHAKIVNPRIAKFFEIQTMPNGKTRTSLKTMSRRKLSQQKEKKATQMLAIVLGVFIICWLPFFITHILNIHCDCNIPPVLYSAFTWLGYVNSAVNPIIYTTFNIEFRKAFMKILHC

Row | SMILES | pKi (D2 dopamine receptors) | pKi (5-HT1A receptors) | pKi (α1-adrenoceptors) | pKi (α2A-adrenoceptors) | pKi (α2D-adrenoceptors) | inhibition at 1 µM (α2A-adrenoceptors) [%] | inhibition at 1 µM (α2D-adrenoceptors) [%] | % displacement at 10^-6 M, α1 (α1-adrenoceptors; 10^-6 M, 7-methoxy-[3H]prazosin, 1 µM) [%] | pKi (α1-adrenoceptors; hydrochloride)
1 | Nc1c(CN2CCN(c3cccc4c3OCCO4)CC2)c(C2CCCC2)nn1-c1ccccc1 [Example 21, 5-Amino-4-[4-(1,4-benzodioxan-5-yl)piperazin-1-ylmethyl]-3-cyclopentyl-1-phenylpyrazole] | 6.35 | 7.24 | 7.68 | – | 7.49 | 89 | – | – | –
2 | Cn1c(N)c(CN2CCN(c3cccc4c3OCCO4)CC2)c(=O)n1-c1ccccc1 [Example 2, 3-amino-4-[4-(1,4-benzodioxan-5-yl)piperazin-1-ylmethyl]-2-methyl-1-phenyl-3-pyrazolin-5-one] | 6.71 | 7.59 | 6.40 | 7.54 | 6.51 | – | – | – | –
3 | CC(C)(C)c1nn(-c2ccccc2)c(N)c1CN1CCN(c2cccc3c2OCCO3)CC1 [Example 22, 5-Amino-4-[4-(1,4-benzodioxan-5-yl)piperazin-1-ylmethyl]-3-tert-butyl-1-phenylpyrazole] | < 6.30 | 7.54 | < 6.30 | – | < 6.30 | 66 | – | – | –
4 | Cc1ccccc1N1CCN(Cc2c(N)n(C)n(-c3ccccc3)c2=O)CC1 [Example 3, 3-Amino-2-methyl-4-[4-(2-methylphenyl)piperazin-1-ylmethyl]-1-phenyl-3-pyrazolin-5-one] | < 6.30 | < 6.30 | – | – | – | 98 | 56 | 89 | –
5 | Nc1c(CN2CCN(c3cccc4c3OCCO4)CC2)c(C2CC2)nn1-c1ccccc1 [Example 10, 5-amino-4-[4-(1,4-benzodioxan-5-yl)piperazin-1-ylmethyl]-3-cyclopropyl-1-phenylpyrazole] | 6.43 | 7.60 | 7.51 | 8.70 | 6.79 | – | – | – | –
6 | Cn1nc(C2CC2)c(CN2CCN(c3cccc4c3OCCO4)CC2)c1N [Example 18, 5-Amino-4-[4-(1,4-benzodioxan-5-yl)piperazin-1-ylmethyl]-3-cyclopropyl-1-methylpyrazole 2.3 hydrochloride] | – | 7.57 | – | – | 7.16 | 98 | – | – | 6.69

Stronger by pKi (5-HT1A receptors), values ahead:

Row | pKi (D2 dopamine receptors) | pKi (5-HT1A receptors) | pKi (α1-adrenoceptors) | pKi (α2A-adrenoceptors) | pKi (α2D-adrenoceptors) | inhibition at 1 µM (α2A-adrenoceptors) [%] | inhibition at 1 µM (α2D-adrenoceptors) [%] | % displacement at 10^-6 M, α1 (α1-adrenoceptors; 10^-6 M, 7-methoxy-[3H]prazosin, 1 µM) [%] | pKi (α1-adrenoceptors; hydrochloride) | SMILES
7 | 6.37 | 7.68 | 6.75 | 7.41 | 7.89 | – | – | – | – | CC(C)(C)n1nc(C2CC2)c(CN2CCN(c3cccc4c3OCCO4)CC2)c1N [Example 24, 5-Amino-4-[4-(1,4-benzodioxan-5-yl)piperazin-1-ylmethyl]-1-tert-butyl-3-cyclopropylpyrazole]
8 | < 6.30 | 7.82 | 6.90 | 7.85 | 7.46 | – | – | – | – | Cn1nc(C2CC2)c(CN2CCN(c3cccc4c3OCCO4)CC2)c1N [Example 25, 5-Amino-4-[4-(1,4-benzodioxan-5-yl)piperazin-1-ylmethyl]-3-cyclopropyl-1-methylpyrazole]
9 | 6.75 | 7.80 | 7.39 | – | 6.92 | 73 | – | – | – | CCCn1c(N)c(CN2CCN(c3cccc4c3OCCO4)CC2)c(=O)n1-c1ccccc1 [Example 5, 3-Amino-4-[4-(1,4-benzodioxan-5-yl)piperazin-1-ylmethyl]-1-phenyl-2-propyl-3-pyrazolin-5-one]
10 | < 6.30 | 7.68 | 7.35 | – | – | 95 | 82 | – | – | Cn1nc(C2CCCC2)c(CN2CCN(c3cccc4c3OCCO4)CC2)c1N [Example 31, 5-Amino-4-[4-(1,4-benzodioxan-5-yl)piperazin-1-ylmethyl]-3-cyclopentyl-1-methylpyrazole]
11 | 6.74 | 8.64 | 7.09 | – | – | 100 | 96 | – | – | Nc1c(CN2CCN(c3cccc4c3OCCO4)CC2)c(C2CC2)nn1-c1ncccn1 [Example 35, 5-Amino-4-[4-(1,4-benzodioxan-5-yl)piperazin-1-ylmethyl]-3-cyclopropyl-1-(2-pyrimidinyl)pyrazole]
